Procedure: Referring to FIG. 1, an epidermis 1506 and a dermis 1508 are collectively referred to as a superficial skin layer 1520 herein. An area of a skin 1500 where cold is applied is referred to herein as a cold site. […] Skin blood flow rate in both the cold site and normothermic site was measured using a laser Doppler perfusion imaging system. Studies also compared plasma concentration of drug 1510 in subjects at the cold site and the normothermic site. […] In one exemplary experiment skin blood flow was measured 15 min after application of cold, and every 15 min thereafter for a total of 3 hours.

O=C(O)c1ccccc1O [salicylic acid]
concentration of drug in superficial skin layer of cold site, higher compared to normothermic site: about 80% | plasma concentration at cold site, lower compared to normothermic site (human, in vivo): about 60% | plasma concentration, cold site (human, in vivo): about 45 nmol/ml

From patent publication US12350458B2, “Apparatus and method for skin treatment” (Brain Tunnelgenix Technologies Corp., priority 2015, dated 2025)
